In patent US20080051387A1, “TETRAHYDROPYRIDO[3,4-D]PYRIMIDINES AND RELATED ANALOGUES” (priority 2006, published 2008):

molecular target: T1, chimeric human H3 receptor (Homo sapiens, UniProt Q9Y5N1); experiment: Chimeric human H3 receptor screening GTP binding assay (inhibition of histamine-stimulated GTP-gamma35S binding, Example 8); format: biochemical; conditions: 1 h; assay described in Example 8; symbol "!" in column headed Ki; read-out: Ki ("!": percent inhibition of agonist-induced GTP-gammaS binding to H3)
T1 construct: rat Galpha-i2 (Gnai2, rat); made in house; host or cells: Sf9 insect cells (baculovirus); P2 membranes
T1 sequence (Q9Y5N1 with tags, fused parts or gaps): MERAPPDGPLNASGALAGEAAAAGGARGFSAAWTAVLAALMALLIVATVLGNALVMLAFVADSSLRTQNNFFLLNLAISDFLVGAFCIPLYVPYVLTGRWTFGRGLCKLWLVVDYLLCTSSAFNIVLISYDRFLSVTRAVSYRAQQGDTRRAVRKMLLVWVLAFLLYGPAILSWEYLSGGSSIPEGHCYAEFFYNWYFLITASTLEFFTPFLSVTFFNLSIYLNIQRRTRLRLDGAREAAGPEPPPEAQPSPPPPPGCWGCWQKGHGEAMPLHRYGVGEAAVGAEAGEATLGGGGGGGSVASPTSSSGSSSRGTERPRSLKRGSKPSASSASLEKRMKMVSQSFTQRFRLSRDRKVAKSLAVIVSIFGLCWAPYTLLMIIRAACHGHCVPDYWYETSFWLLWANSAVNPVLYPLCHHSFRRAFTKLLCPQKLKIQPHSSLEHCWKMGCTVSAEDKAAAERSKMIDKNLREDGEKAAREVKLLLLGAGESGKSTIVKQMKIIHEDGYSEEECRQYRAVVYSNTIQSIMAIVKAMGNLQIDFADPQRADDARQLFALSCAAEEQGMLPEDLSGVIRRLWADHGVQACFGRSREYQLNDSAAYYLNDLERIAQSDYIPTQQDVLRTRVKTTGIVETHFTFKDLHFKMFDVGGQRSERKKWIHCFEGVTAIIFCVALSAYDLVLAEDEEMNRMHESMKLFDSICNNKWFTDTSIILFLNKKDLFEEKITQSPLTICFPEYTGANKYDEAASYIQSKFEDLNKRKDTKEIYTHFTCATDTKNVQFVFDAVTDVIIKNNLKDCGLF
Protocol: This Example illustrates a representative screening assay for evaluating inhibition of histamine-stimulated GTP-gamma^35S binding. Such GTP binding activity can be used to identify H3 antagonists and inverse agonists. A compound analyzed in this assay is referred to herein as a “test compound,” and the initial identification of antagonists and inverse agonists is performed using a test compound concentration of 4 μM.
Four independent baculoviral stocks (one directing the expression of the chimeric human H3 receptor and three directing the expression of each of the three subunits of a heterotrimeric G-protein) are used to infect a culture of Sƒ9 cells as described above. P2 membranes are prepared as described above, and are resuspended by Dounce homogenization (tight pestle) in GTP binding assay buffer (50 mM Tris pH 7.4, 120 mM NaCl, 5 mM MgCl2, 2 mM EGTA, 1 mg/ml BSA, 0.2 mg/ml bacitracin, 0.02 mg/ml aprotinin, 0.01 mg/ml saponin, 10 μM GDP) and added to assay tubes at a concentration of 35 μg protein/reaction tube. Non-radiolabeled test compounds are added to separate reactions at a concentration of 4 μM along with 1 μM histamine (agonist). Reactions are initiated by the addition of 125 pM GTP-gamma^35S with a final assay volume of 0.20 ml.
After a 60-min incubation at room temperature, reactions are terminated by vacuum filtration over GF/C filters (pre-soaked in 50 mM Tris pH 7.4, 120 mM NaCl plus 0.1% BSA) followed by washing with ice-cold buffer (50 mM Tris pH 7.4, 120 mM NaCl). The amount of receptor-bound (and thereby membrane-bound) GTP-gamma^35S is determined by measuring the bound radioactivity, preferably by liquid scintillation spectrometry of the washed filters. Non-specific binding is determined using 10 uM GTP-gammaS and typically represents less than 5 percent of total binding. After subtraction of non-specific binding, data is expressed as percent inhibition of 1 μM histamine signal.
Neutral antagonists are those test compounds that reduce the histamine-stimulated GTP binding activity towards, but not below, baseline levels. In contrast, in the absence of added histamine, inverse agonists reduce the GTP binding activity of the receptor-containing membranes below baseline. Any test compound that elevates GTP binding activity above baseline in the absence of added histamine in this assay is defined as having agonist activity.

inhibition at 4 µM | Compound
≥ 90% | O=C(c1cccs1)N1CCc2cnc(N3CCN(C4CCC4)CC3)nc2CC1 [Compound 443, 2-(4-cyclobutylpiperazin-1-yl)-7-(2-thienylcarbonyl)-6,7,8,9-tetrahydro-5H-pyrimido[4,5-d]azepine]
≥ 90% | Cc1cc(C(=O)N2CCc3cnc(N4CCN(C5CCC5)CC4)nc3CC2)c(C)n1C [Compound 459, 2-(4-cyclobutylpiperazin-1-yl)-7-[(1,2,5-trimethyl-1H-pyrrol-3-yl)carbonyl]-6,7,8,9-tetrahydro-5H-pyrimido[4,5-d]azepine]
≥ 90% | O=C(/C=C/c1cccc(Cl)c1)N1CCc2cnc(N3CCN(C4CCC4)CC3)nc2CC1 [Compound 552, 7-[(2E)-3-(3-chlorophenyl)prop-2-enoyl]-2-(4-cyclobutylpiperazin-1-yl)-6,7,8,9-tetrahydro-5H-pyrimido[4,5-d]azepine]
≥ 90% | O=C(c1cccnc1Cl)N1CCc2cnc(N3CCN(C4CCC4)CC3)nc2CC1 [Compound 477, 7-[(2-chloropyridin-3-yl)carbonyl]-2-(4-cyclobutylpiperazin-1-yl)-6,7,8,9-tetrahydro-5H-pyrimido[4,5-d]azepine]
≥ 90% | O=C(/C=C/c1ccc(OCc2ccc(F)cc2)cc1)N1CCc2cnc(N3CCN(C4CCC4)CC3)nc2CC1 [Compound 562, 2-(4-cyclobutylpiperazin-1-yl)-7-[(2E)-3-{4-[(4-fluorobenzyl)oxy]phenyl}prop-2-enoyl]-6,7,8,9-tetrahydro-5H-pyrimido[4,5-d]azepine]
≥ 90% | CCCn1c(C(=O)N2CCc3cnc(N4CCN(C5CCC5)CC4)nc3CC2)cc2ccccc21 [Compound 463, 2-(4-cyclobutylpiperazin-1-yl)-7-[(1-propyl-1H-indol-2-yl)carbonyl]-6,7,8,9-tetrahydro-5H-pyrimido[4,5-d]azepine]
≥ 90% | O=C(c1ccccc1OC(F)(F)F)N1CCc2cnc(N3CCN(C4CCC4)CC3)nc2CC1 [Compound 412, 2-(4-cyclobutylpiperazin-1-yl)-7-[2-(trifluoromethoxy)benzoyl]-6,7,8,9-tetrahydro-5H-pyrimido[4,5-d]azepine]
≥ 90% | COc1cc(C(=O)N2CCc3cnc(N4CCN(C5CCC5)CC4)nc3CC2)cc(Cl)n1 [Compound 485, 7-(2-chloro-6-methoxyisonicotinoyl)-2-(4-cyclobutylpiperazin-1-yl)-6,7,8,9-tetrahydro-5H-pyrimido[4,5-d]azepine]
≥ 90% | O=C(c1ccc(Cl)c(Cl)c1)N1CCc2cnc(N3CCN(C4CCC4)CC3)nc2CC1 [Compound 396, 2-(4-cyclobutylpiperazin-1-yl)-7-(3,4-dichlorobenzoyl)-6,7,8,9-tetrahydro-5H-pyrimido[4,5-d]azepine]
≥ 90% | O=C(c1cc(-c2ccc(Cl)cc2)oc1C(F)(F)F)N1CCc2cnc(N3CCN(C4CCC4)CC3)nc2CC1 [Compound 470, 7-[5-(4-chlorophenyl)-2-(trifluoromethyl)-3-furoyl]-2-(4-cyclobutylpiperazin-1-yl)-6,7,8,9-tetrahydro-5H-pyrimido[4,5-d]azepine]

same assay, conditions: 1 h; assay of Example 8; symbol "!" in column headed Ki; read-out: percent inhibition of agonist-induced GTP-gammaS binding to H3

inhibition at 4 µM | Compound
≥ 90% | COc1cc(Cl)ccc1OCC(=O)N1CCc2cnc(N3CCN(C4CCC4)CC3)nc2CC1 [Compound 318, 7-[(4-chloro-2-methoxyphenoxy)acetyl]-2-(4-cyclobutylpiperazin-1-yl)-6,7,8,9-tetrahydro-5H-pyrimido[4,5-d]azepine]
≥ 90% | Cc1ccccc1OCC(=O)N1CCc2cnc(N3CCN(C4CCC4)CC3)nc2CC1 [Compound 321, 2-(4-cyclobutylpiperazin-1-yl)-7-[(2-methylphenoxy)acetyl]-6,7,8,9-tetrahydro-5H-pyrimido[4,5-d]azepine]
≥ 90% | O=C(COc1cccc2ccccc12)N1CCc2cnc(N3CCN(C4CCC4)CC3)nc2CC1 [Compound 335, 2-(4-cyclobutylpiperazin-1-yl)-7-[(1-naphthyloxy)acetyl]-6,7,8,9-tetrahydro-5H-pyrimido[4,5-d]azepine]
≥ 90% | Cc1ccccc1OC(C)C(=O)N1CCc2cnc(N3CCN(C4CCC4)CC3)nc2CC1 (centres unmarked) [Compound 346, 2-(4-cyclobutylpiperazin-1-yl)-7-[2-(2-methylphenoxy)propanoyl]-6,7,8,9-tetrahydro-5H-pyrimido[4,5-d]azepine]
≥ 90% | O=C(Cc1cccc2ccccc12)N1CCc2cnc(N3CCN(C4CCC4)CC3)nc2CC1 [Compound 309, 2-(4-cyclobutylpiperazin-1-yl)-7-(1-naphthylacetyl)-6,7,8,9-tetrahydro-5H-pyrimido[4,5-d]azepine]

Second part, the compound before the results:

Compound | inhibition at 4 µM
Cc1ccc(CN2CCc3cnc(N4CCN(C5CCC5)CC4)nc3CC2)cc1C [Compound 257, 2-(4-cyclobutylpiperazin-1-yl)-7-(3,4-dimethylbenzyl)-6,7,8,9-tetrahydro-5H-pyrimido[4,5-d]azepine] | ≥ 90%
Cc1ccc(C)c(C(=O)N2CCc3cnc(N4CCN(C5CCC5)CC4)nc3CC2)c1 [Compound 227, 2-(4-cyclobutylpiperazin-1-yl)-7-(2,5-dimethylbenzoyl)-6,7,8,9-tetrahydro-5H-pyrimido[4,5-d]azepine] | ≥ 90%
O=C(c1ccc(F)cc1)N1CCc2cnc(N3CCN(C4CCC4)CC3)nc2CC1 [Compound 194, 2-(4-cyclobutylpiperazin-1-yl)-7-(4-fluorobenzoyl)-6,7,8,9-tetrahydro-5H-pyrimido[4,5-d]azepine] | ≥ 90%

same assay, conditions: symbol ! in Ki; test compound 4 μM, 1 μM histamine; read-out: percent inhibition of agonist-induced GTP-gammaS binding to H3

inhibition at 4 µM | Compound
≥ 90% | CC(C)CN1CCc2c(ncnc2N2CCN(C3CCC3)CC2)C1 [Compound 86, 4-(4-cyclobutylpiperazin-1-yl)-7-isobutyl-5,6,7,8-tetrahydropyrido[3,4-d]pyrimidine]
≥ 90% | CCCCC(C)N1CCc2c(ncnc2N2CCN(C3CCC3)CC2)C1 (centres unmarked) [Compound 119, 4-(4-cyclobutylpiperazin-1-yl)-7-(1-methylpentyl)-5,6,7,8-tetrahydropyrido[3,4-d]pyrimidine]
≥ 90% | CC(C)C(=O)N1CCc2c(ncnc2N2CCN(C3CCC3)CC2)C1 [Compound 59, 4-(4-cyclobutylpiperazin-1-yl)-7-isobutyryl-5,6,7,8-tetrahydropyrido[3,4-d]pyrimidine]
≥ 90% | FC(F)(F)c1ccc(N2CCc3c(ncnc3N3CCN(C4CCC4)CC3)C2)nc1 [Compound 138, 4-(4-cyclobutylpiperazin-1-yl)-7-[5-(trifluoromethyl)pyridin-2-yl]-5,6,7,8-tetrahydropyrido[3,4-d]pyrimidine]
≥ 90% | CC(C)CCN1CCc2c(ncnc2N2CCN(C3CCC3)CC2)C1 [Compound 82, 4-(4-cyclobutylpiperazin-1-yl)-7-(3-methylbutyl)-5,6,7,8-tetrahydropyrido[3,4-d]pyrimidine]
≥ 90% | CCN1CCc2ncnc(N3CCN(C4CCC4)CC3)c2CC1 [Compound 160, 4-(4-cyclobutylpiperazin-1-yl)-7-ethyl-6,7,8,9-tetrahydro-5H-pyrimido[4,5-d]azepine]
≥ 90% | CCCN1CCc2ncnc(N3CCN(C4CCC4)CC3)c2CC1 [Compound 162, 4-(4-cyclobutylpiperazin-1-yl)-7-propyl-6,7,8,9-tetrahydro-5H-pyrimido[4,5-d]azepine]
≥ 90% | O=C(c1cccnc1)N1CCc2c(ncnc2N2CCN(C3CCC3)CC2)C1 [Compound 34, 4-(4-cyclobutylpiperazin-1-yl)-7-(pyridin-3-ylcarbonyl)-5,6,7,8-tetrahydropyrido[3,4-d]pyrimidine]
≥ 90% | O=C(C1CCOC1)N1CCc2c(ncnc2N2CCN(C3CCC3)CC2)C1 (centres unmarked) [Compound 58, 4-(4-cyclobutylpiperazin-1-yl)-7-(tetrahydrofuran-3-ylcarbonyl)-5,6,7,8-tetrahydropyrido[3,4-d]pyrimidine]
≥ 90% | O=C(C1CCCC1)N1CCc2c(ncnc2N2CCN(C3CCC3)CC2)C1 [Compound 54, 4-(4-cyclobutylpiperazin-1-yl)-7-(cyclopentylcarbonyl)-5,6,7,8-tetrahydropyrido[3,4-d]pyrimidine]

same assay, conditions: test compound 4 μM, 1 μM histamine; read-out: percent inhibition of agonist-induced GTP-gammaS binding to H3

inhibition at 4 µM | Compound
≥ 90% | CC(=O)c1ccc(N2CCc3cnc(N4CCN(C5CCC5)CC4)nc3CC2)cc1 [Compound 11, 1-{4-[2-(4-Cyclobutyl-piperazin-1-yl)-5,6,8,9-tetrahydro-pyrimido[4.5-d]azepin-7-yl]-phenyl}-ethanone]
